One may read the IC50 as the concentration that gives 50% inhibition. By EC50 is commonly meant the concentration that produces a half-maximal response. The term inhibition denotes the change of the read-out against control, counted positive when it falls. Lower therefore signals a response near the control.

IC50, EC50 and inhibition data for 15 molecules are collected here from ChEMBL document CHEMBL5360648, “Identification of 5-HT2 Serotonin Receptor Modulators through the Synthesis of a Diverse, Tropane- and Quinuclidine-alkaloid-Inspired Compound Library” (J Med Chem, 2023).

The target in assay [1] is T1, 5-hydroxytryptamine receptor 2A (Homo sapiens, UniProt P28223). The experiment in a line: Antagonist activity at 5-HT2A receptor in HEK293 cells assessed as calcium mobilisation by Fluo-4 dye based assay. It counts as functional, cell-based. On the technique in general: Calcium flux is commonly read through the fluorescence of an indicator in the cells.
The target of assay [2] is T2, 5-hydroxytryptamine receptor 2C (Homo sapiens, UniProt P28335).
T2 sequence (P28335 whole entry): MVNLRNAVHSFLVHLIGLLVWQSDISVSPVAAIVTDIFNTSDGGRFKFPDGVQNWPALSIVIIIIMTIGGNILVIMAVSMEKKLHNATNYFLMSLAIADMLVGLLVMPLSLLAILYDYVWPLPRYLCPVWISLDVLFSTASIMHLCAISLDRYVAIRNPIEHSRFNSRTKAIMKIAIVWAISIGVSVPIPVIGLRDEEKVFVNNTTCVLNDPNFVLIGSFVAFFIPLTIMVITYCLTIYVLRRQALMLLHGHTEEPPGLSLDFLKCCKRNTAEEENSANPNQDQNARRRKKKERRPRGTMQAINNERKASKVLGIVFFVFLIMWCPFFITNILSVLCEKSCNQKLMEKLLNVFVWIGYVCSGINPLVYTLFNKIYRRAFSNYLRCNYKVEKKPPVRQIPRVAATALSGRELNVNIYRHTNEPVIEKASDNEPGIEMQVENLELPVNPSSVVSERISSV
The experiment in a line: Antagonist activity at 5-HT2C receptor in HEK293 cells assessed as calcium mobilisation by Fluo-4 dye based assay. It counts as functional, cell-based.

Assay [3] addresses T1, 5-hydroxytryptamine receptor 2A. As to the kind of experiment: Agonist activity at 5-HT2A receptor in HEK293 cells assessed as calcium mobilisation by Fluo-4 dye based assay.
The target of assay [4] is Neuronal acetylcholine receptor; alpha3/beta4 (Rattus norvegicus) (UniProt P04757+P12392). The experiment in a line: Inhibition of [3H]epibatidine from binding to rat nACh receptor alpha3beta4 expressed in HEK293 cell membrane at 10 uM incubated for 2.5 hrs by liquid scintillation counting analysis relative to control. It counts as cell membranes.
Assay [5] deals with Neuronal acetylcholine receptor; alpha4/beta2 (Homo sapiens) (UniProt P17787+P43681). The experiment in a line: Inhibition of [3H]epibatidine from binding to human nACh receptor alpha4beta2 expressed in HEK293 cell membrane at 10 uM incubated for 2.5 hrs by liquid scintillation counting analysis relative to control. It counts as cell membranes.
For assay [6], the target named is T3, 5-hydroxytryptamine receptor 1A (Homo sapiens) (UniProt P08908).
T3 sequence (whole entry): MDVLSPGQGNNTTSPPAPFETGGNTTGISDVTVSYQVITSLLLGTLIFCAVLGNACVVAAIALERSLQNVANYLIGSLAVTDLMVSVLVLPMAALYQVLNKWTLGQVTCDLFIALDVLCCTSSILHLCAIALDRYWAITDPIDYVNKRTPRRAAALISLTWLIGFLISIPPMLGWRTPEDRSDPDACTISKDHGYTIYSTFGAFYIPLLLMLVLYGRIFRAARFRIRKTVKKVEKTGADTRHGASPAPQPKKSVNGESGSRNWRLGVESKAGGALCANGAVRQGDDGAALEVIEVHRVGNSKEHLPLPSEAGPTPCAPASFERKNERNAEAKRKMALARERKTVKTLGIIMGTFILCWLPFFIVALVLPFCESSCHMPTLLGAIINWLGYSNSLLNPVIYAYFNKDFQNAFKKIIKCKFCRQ
As to the kind of experiment: Inhibition of [3H]-8-OH-DPAT from binding to 5-HT1A receptor (unknown origin) at 10 uM relative to control.

Assay [7] concerns the target 5-hydroxytryptamine receptor 2B (Homo sapiens) (UniProt P41595). As to the kind of experiment: Inhibition of [3H]mesulergine from binding to 5-HT2B receptor (unknown origin) at 10 uM relative to control.
The species entered for another assay is Homo sapiens. The experiment in a line: Inhibition of [3H]BRL43694 from binding to 5-HT3 receptor (unknown origin) at 10 uM relative to control.
In assay [8] the target is 5-hydroxytryptamine receptor 4 (Homo sapiens) (UniProt Q13639). As to the kind of experiment: Inhibition of [3H]GR113808 from binding to 5-HT4E receptor (unknown origin) at 10 uM relative to control.
For assay [9], the target named is 5-hydroxytryptamine receptor 5A (Homo sapiens) (UniProt P47898). As to the kind of experiment: Inhibition of [3H]LSD from binding to 5-HT5A receptor (unknown origin) at 10 uM relative to control.
Assay [10] has as its target 5-hydroxytryptamine receptor 6 (Homo sapiens) (UniProt P50406). As to the kind of experiment: Inhibition of [3H]LSD from binding to 5-HT6 receptor (unknown origin) at 10 uM relative to control.
In assay [11] the target is 5-hydroxytryptamine receptor 7 (Homo sapiens) (UniProt P34969). The experiment in a line: Inhibition of [3H]LSD from binding to 5-HT7 receptor (unknown origin) at 10 uM relative to control.
Assay [12] has the same target. The experiment in a line: Inhibition of [3H]LSD from binding to 5-HT7 receptor (unknown origin) at 1 uM relative to control.
For assay [13], the target named is T4, Muscarinic acetylcholine receptor M1 (Homo sapiens) (UniProt P11229).
T4 sequence (whole entry): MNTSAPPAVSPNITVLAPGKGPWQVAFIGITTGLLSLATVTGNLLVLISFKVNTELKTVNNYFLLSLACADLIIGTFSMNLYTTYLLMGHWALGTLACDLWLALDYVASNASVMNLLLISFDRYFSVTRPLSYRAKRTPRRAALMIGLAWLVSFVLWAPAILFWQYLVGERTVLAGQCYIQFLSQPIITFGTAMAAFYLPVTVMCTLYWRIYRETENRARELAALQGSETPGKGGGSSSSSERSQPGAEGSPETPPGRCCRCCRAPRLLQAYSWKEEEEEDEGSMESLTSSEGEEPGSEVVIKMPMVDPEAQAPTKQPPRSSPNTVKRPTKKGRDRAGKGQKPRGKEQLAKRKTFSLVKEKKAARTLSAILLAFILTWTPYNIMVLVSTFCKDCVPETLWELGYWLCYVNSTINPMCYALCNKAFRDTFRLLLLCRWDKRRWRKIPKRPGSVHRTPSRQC
As to the kind of experiment: Inhibition of [3H]pirenzepine from binding to M1 receptor (unknown origin) at 10 uM relative to control.

The target in assay [14] is T5, Muscarinic acetylcholine receptor M2 (Homo sapiens) (UniProt P08172).
T5 sequence (whole entry): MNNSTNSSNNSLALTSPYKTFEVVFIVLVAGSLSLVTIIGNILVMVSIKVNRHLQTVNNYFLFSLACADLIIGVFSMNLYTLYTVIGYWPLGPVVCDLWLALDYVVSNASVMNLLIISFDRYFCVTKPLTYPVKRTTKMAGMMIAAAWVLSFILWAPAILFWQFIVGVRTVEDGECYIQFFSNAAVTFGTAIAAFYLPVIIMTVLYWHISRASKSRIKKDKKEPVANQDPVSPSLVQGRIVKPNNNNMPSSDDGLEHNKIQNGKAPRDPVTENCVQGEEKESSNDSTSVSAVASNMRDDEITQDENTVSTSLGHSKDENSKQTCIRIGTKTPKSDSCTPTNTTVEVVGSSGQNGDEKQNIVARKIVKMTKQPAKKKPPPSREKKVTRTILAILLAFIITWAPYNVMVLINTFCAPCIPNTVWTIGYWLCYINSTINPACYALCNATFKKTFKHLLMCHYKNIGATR
The experiment in a line: Inhibition of [3H]AF-DX384 from binding to M2 receptor (unknown origin) at 10 uM relative to control.

The target of assay [15] is Muscarinic acetylcholine receptor M3 (Homo sapiens) (UniProt P20309). As to the kind of experiment: Inhibition of [3H]4-DAMP from binding to M3 receptor (unknown origin) at 10 uM relative to control.
Assay [16] addresses T6, Muscarinic acetylcholine receptor M4 (Homo sapiens) (UniProt P08173).
T6 sequence (whole entry): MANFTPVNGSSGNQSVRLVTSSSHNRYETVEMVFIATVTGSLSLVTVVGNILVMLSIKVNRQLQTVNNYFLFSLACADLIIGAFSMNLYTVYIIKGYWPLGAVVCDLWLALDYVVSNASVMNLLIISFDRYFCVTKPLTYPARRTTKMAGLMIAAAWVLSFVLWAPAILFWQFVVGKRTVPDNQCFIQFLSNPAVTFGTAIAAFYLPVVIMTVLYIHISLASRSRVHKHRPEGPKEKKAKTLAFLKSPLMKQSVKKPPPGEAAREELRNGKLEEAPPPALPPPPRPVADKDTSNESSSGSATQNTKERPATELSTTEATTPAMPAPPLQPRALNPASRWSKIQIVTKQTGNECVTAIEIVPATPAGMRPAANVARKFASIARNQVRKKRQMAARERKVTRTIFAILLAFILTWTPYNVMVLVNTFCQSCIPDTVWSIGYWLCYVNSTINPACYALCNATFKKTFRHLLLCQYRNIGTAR
The experiment in a line: Inhibition of [3H]4-DAMP from binding to M4 receptor (unknown origin) at 10 uM relative to control.

The target in assay [17] is T7, Muscarinic acetylcholine receptor M5 (Homo sapiens) (UniProt P08912).
T7 sequence (whole entry): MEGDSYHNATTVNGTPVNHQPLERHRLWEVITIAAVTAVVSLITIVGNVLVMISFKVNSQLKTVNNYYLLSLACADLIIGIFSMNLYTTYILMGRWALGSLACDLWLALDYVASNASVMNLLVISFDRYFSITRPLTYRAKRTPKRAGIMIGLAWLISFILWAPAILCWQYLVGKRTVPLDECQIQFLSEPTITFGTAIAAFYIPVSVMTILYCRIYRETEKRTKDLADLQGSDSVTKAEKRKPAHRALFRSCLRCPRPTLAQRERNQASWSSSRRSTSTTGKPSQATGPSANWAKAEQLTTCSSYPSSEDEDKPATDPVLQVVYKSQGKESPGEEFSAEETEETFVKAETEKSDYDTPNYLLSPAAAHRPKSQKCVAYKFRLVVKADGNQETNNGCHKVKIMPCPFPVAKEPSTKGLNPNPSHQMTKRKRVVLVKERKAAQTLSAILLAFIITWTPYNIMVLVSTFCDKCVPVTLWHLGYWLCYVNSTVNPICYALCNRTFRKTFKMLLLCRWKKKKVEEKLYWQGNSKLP
As to the kind of experiment: Inhibition of [3H]4-DAMP from binding to M5 receptor (unknown origin) at 10 uM relative to control.

Assay [18] in a line: Antagonist activity at 5-HT-induced 5-HT2B signaling in CHO cells by IP1 assay. Conditions: Cricetulus griseus.

T1 sequence (P28223 whole entry): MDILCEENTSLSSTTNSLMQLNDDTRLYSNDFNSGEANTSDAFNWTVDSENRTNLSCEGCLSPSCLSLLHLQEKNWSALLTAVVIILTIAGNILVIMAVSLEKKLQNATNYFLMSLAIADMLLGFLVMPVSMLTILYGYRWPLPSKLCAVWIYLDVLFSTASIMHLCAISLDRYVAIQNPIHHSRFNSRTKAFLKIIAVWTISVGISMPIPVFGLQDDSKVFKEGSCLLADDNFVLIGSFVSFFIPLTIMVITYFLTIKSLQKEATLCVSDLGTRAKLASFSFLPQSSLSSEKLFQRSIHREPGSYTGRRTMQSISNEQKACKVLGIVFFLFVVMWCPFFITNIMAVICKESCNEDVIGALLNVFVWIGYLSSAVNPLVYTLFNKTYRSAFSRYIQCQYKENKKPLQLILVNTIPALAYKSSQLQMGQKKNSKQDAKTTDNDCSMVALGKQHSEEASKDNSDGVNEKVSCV
Sequence of 5-hydroxytryptamine receptor 7 (Homo sapiens) (P34969 whole entry): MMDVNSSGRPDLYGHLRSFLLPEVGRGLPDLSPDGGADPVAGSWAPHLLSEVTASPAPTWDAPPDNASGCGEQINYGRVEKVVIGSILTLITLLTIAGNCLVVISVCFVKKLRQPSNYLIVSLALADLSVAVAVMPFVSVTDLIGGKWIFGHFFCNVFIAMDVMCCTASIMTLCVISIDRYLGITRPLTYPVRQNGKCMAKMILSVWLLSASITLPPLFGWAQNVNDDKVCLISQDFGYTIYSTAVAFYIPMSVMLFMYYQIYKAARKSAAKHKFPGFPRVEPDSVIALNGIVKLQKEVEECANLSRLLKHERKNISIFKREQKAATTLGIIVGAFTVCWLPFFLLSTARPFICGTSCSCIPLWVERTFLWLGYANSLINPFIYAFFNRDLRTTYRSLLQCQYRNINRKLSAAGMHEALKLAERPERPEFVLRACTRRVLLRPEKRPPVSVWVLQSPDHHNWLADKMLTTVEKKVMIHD
Sequence of 5-hydroxytryptamine receptor 6 (Homo sapiens) (P50406 whole entry): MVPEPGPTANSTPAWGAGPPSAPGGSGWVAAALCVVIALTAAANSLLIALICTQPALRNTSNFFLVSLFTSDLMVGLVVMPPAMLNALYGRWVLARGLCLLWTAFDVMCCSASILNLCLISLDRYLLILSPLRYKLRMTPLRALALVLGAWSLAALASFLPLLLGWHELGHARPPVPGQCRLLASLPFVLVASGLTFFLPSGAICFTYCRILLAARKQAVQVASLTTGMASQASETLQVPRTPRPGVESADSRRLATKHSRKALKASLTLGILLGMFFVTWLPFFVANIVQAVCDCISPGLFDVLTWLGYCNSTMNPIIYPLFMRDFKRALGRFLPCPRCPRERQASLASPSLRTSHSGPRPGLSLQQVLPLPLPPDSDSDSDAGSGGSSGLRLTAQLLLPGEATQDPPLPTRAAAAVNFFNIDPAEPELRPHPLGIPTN
Sequence of 5-hydroxytryptamine receptor 2B (Homo sapiens) (P41595 whole entry): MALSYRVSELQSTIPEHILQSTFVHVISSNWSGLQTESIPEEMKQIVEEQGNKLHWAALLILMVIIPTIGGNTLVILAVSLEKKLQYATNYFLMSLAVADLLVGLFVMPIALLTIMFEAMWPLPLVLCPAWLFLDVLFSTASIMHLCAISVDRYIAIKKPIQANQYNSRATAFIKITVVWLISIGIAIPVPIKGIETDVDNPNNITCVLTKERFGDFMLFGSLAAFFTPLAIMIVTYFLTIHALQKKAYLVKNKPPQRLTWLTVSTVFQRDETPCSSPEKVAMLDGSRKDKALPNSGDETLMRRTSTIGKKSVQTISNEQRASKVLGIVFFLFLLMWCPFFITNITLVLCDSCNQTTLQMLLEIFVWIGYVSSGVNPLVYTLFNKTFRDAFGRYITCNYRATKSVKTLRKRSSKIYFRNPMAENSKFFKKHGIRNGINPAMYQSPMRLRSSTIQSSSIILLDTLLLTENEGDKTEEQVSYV
Sequence of 5-hydroxytryptamine receptor 4 (Homo sapiens) (Q13639 whole entry): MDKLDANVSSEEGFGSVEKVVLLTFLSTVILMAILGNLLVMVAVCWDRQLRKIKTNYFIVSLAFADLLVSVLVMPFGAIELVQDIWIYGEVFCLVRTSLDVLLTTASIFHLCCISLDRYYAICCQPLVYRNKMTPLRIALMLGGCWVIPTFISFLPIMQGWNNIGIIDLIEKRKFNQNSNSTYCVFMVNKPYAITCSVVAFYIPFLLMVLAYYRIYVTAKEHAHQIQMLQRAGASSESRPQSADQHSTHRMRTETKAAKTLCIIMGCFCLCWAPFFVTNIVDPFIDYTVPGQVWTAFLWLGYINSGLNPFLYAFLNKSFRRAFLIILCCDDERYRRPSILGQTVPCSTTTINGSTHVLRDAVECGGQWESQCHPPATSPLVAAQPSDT
Sequence of 5-hydroxytryptamine receptor 5A (Homo sapiens) (P47898 whole entry): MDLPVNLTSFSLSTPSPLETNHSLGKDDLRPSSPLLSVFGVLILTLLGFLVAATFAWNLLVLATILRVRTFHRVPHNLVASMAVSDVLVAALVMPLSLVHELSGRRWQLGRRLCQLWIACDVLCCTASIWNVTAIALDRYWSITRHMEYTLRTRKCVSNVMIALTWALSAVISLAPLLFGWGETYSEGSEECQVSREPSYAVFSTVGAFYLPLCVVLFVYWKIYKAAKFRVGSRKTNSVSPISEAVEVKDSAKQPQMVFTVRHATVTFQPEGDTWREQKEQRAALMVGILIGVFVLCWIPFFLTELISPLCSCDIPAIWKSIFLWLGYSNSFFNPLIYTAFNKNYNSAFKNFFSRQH
Sequence of Muscarinic acetylcholine receptor M3 (Homo sapiens) (P20309 whole entry, looked up): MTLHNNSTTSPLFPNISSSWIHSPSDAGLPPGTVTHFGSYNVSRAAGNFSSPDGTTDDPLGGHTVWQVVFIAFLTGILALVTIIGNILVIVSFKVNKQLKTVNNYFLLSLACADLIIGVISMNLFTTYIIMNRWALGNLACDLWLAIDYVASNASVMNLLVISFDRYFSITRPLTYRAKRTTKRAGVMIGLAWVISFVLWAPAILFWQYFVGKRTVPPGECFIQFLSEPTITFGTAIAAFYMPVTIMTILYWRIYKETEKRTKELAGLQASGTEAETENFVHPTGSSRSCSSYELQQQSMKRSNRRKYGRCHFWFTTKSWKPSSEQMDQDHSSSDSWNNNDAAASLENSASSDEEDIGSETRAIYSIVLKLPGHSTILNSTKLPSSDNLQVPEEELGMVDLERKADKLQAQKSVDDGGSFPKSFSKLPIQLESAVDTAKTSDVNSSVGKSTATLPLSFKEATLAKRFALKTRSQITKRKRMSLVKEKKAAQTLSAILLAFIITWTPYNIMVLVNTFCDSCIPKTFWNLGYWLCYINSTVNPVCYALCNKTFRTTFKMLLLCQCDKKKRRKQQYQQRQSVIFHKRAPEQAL

Consider `COc1ccc2c(c1)O[C@]1(CC2=O)CN2CCC1CC2`, for which the IC50 in assay [1] is greater than 30 µM; in assay [2] it was 0.52 µM. For the same molecule, the EC50 in assay [3] is greater than 30 µM.

Take `O=C1C[C@]2(CN3CCC2CC3)Oc2cc(O)ccc21`: the results for the IC50 in [1] and in assay [2] were greater than 100 µM and 2.5 µM, respectively.

Turning to `COc1ccc2c(c1)C(=O)C[C@]1(CN3CCC1CC3)O2`, the IC50 in assay [1] and in assay [2] was greater than 10 µM each time.

For `O=C1C[C@]2(CN3CCC2CC3)Oc2cc(OCC3CC3)ccc21`, the IC50 in [1] is greater than 100 µM; in assay [2], 1.5 µM.

Regarding `O=C1CC2(CN3CCC2CC3)Oc2c1ccc1ccccc21` (racemic), the figures for the IC50 in [1] and in assay [2] were 20 µM and 0.18 µM, respectively.

Regarding `O=C1C[C@]2(CN3CCC2CC3)Oc2ccc(F)cc21`, the IC50 in assay [1] and in assay [2] was greater than 10 µM each time.

For `O=C1C[C@]2(CN3CCC2CC3)Oc2ccc(Br)cc21`, the IC50 in assay [1] and in [2] was greater than 10 µM throughout.

Take `O=C1C[C@]2(CN3CCC2CC3)Oc2ccccc21`: the IC50 in assay [1] and in assay [2] was greater than 10 µM each time.

As to `O=C1NC2(CN3CCC2CC3)Nc2ccccc21` (stereo not given), the inhibition in assay [4] and in assay [5] was greater than 50% throughout.

With `COc1cccc2c1C(=O)C[C@]1(CN3CCC1CC3)O2`, the figures for the IC50 in [1] and in assay [2] were greater than 100 µM and 5 µM, respectively.

For the molecule `O=C1C[C@]2(CN3CCC2CC3)Oc2c1ccc1ccccc21`, the figures for the IC50 in assay [1], in [2] and in assay [18] were 50 µM, 0.095 µM and 0.135 µM, respectively. Besides, the inhibition stood at 57% in assay [6]; 99% in assay [7]; 85% in the assay listed under Homo sapiens; 42% in assay [8]; 64% in assay [9]; 57% in assay [10]. The inhibition in assay [11] was 92%; in assay [12], 67%; in assay [13], 67%; in [14], 31%; in [15], 27%; in assay [16] it was 67%. This molecule also displayed an inhibition in [17] of 69%.

Turning to `O=C1C[C@@]2(CN3CCC2CC3)Oc2c1ccc1ccccc21`, the figures for the IC50 in [1] and in [2] were greater than 100 µM and 50 µM, respectively.

On to `O=C1C[C@]2(CN3CCC2CC3)Oc2cc3ccccc3cc21`, for which the IC50 in assay [1] was 50 µM; in [2], greater than 100 µM.

As for `O=C1C[C@]2(CN3CCC2CC3)Oc2cc(Br)ccc21`, the IC50 was determined as 15 µM in assay [1] and 2.3 µM in assay [2].

`Cc1ccc2c(c1)O[C@]1(CC2=O)CN2CCC1CC2`: the IC50 was greater than 100 µM in [1] and 2.5 µM in assay [2].
